Source: patent publication US9133241B2, “Peptide compositions” (TARIX PHARMACEUTICALS LTD., priority 2013, dated 2015)

Assays:
HUVEC cells = assay: cAMP production in HUVEC (cAMP enzyme immunoassay of cell lysate); type: cell-based, human; conditions: 15 minutes stimulation
Protocol: Prior to stimulation with Ala^1-Arg^2-Val^3-Ser^4-Ile^5-His^6-Cys^7 (SEQ ID NO: 18), HUVEC cells were washed twice with PBS and then incubated for 1 hour in serum-free medium. In this Example, in order to generate a dose response curve, the peptide concentration ranged from 1×10^−13-1×10^−6 M. After 15 minutes stimulation, the medium containing peptide was removed and the cells were lysed (0.1M HCl, 0.1% Triton X-100). The clear lysate was collected, and 25 μl were used for determining the protein concentration (Pierce BCA Protein Assay Kit, Thermo Scientific, Rockford, USA) and the remaining fraction stored at −80° C. for later analysis.
cAMP concentration in cell lysates was determined using cAMP Enzyme Immunoassay Kit, Direct from Sigma-Aldrich (St. Louis, Mo., USA). Briefly, wells of 96-well plate (Goat Anti-Rabbit IgG pre-coated) were neutralized with 50 μl of Neutralizing Reagent. Next, 100 μl of acetylated cyclic AMP standard or cell lysate was added, followed by 50 μl of blue cAMP-Alkaline Phosphatase Conjugate and 50 μl of yellow EIA Rabbit Anti-cAMP antibody. The plate was then incubated on a shaker (˜500 rpm) for two hours at room temperature. […] The enzymatic reaction was stopped by adding 50 μl of Stop Solution, and the absorbance at 405 nm was measured immediately. The cAMP concentration was determined from non-linear standard curve using GraphPad Prism 5.0 software. […]

[1] = test system: transient middle cerebral artery occlusion (tMCAO) rat model of stroke; assay: Cerebral blood flow and vessel diameter (laser Doppler), tMCAO rat model of stroke; type: in vivo; conditions: day 50; 50 μg/kg SC
Protocol: (§1) For the purposes of this Example, Transient middle cerebral artery occlusion (tMCAO) procedure Day is defined as “Day 1” in this study. On the day of surgery anesthesia were induced with 4% isoflurane in a mixture of 70% N2O and 30% O2 and maintained with 1.5-2% isoflurane.
(§2) The tMCAO procedures were performed according to the method described R. Schmid-Elsaesser et al., A critical reevaluation of the intraluminal thread model of focal cerebral ischemia: evidence of inadvertent premature reperfusion and subarachnoid hemorrhage in rats by laser-doppler flowmetry, Stroke, 1998, 29(10): 2162-2170. Briefly, the right CCA (Common Carotid Artery) was exposed through a midline neck incision and carefully dissected free from surrounding nerves and fascia—from its bifurcation to the base of the skull. The occipital artery branches of the ECA (External Carotid Artery) were then isolated, and these branches were dissected and coagulated. The ECA was dissected further distally and coagulated along with the terminal lingual and maxillary artery branches, which was then divided. The ICA (Internal Carotid Artery) was isolated and carefully separated from the adjacent vagus nerve, and the pterygopalatine artery was ligated close to its origin with a 5-0 nylon suture (SMI, Belgium). Next, a 4-0 silk suture was tied loosely around the mobilized ECA stump, and a 4 cm length of 4-0 monofilament nylon suture (the tip of the suture was blunted by using a flame, and the suture was coated with polylysine, prior to insertion) was inserted through the proximal ECA into the ICA and thence into the circle of Willis, effectively occluding the MCA. The surgical wound was closed and the animals were returned to their cages to recover from anesthesia. One hour and a half after occlusion rats were re-anesthetized, the monofilament was withdrawn to allow reperfusion, the surgical wound was closed and rats were returned to their cages.
(§3) Animals were subjected to a modified Modified Neurological Rating Scale (mNRS) at 24 hours post reperfusion. Only animals with an overall score of ≧10 were included in this study. Animals were allocated into the test groups, according to the mNRS results on day 2, in order to have similar distribution of rats performance between groups. Starting on day 2, 24 hours post-surgery, each animal was administered one of 50 μg/kg of either TXA301 (SEQ ID NO: 20) or TXA302 (SEQ ID NO: 18) or […]; via subcutaneous (SC) administration.
Evaluation of blood flow in the cerebral cortex and vessel constriction was carried out using a Flow-R Laser Doppler system, in which intracranial blood flow and vessels diameter (constriction/dilation) was monitored. The Doppler procedure was carried out on Day 50 after the stroke and was performed while the animals were under isoflurane anesthesia.

[2] = test system: transient middle cerebral artery occlusion (tMCAO) rat model of stroke; assay: Body swing test, tMCAO rat model of stroke; type: in vivo; conditions: 50 μg/kg SC once per day, tMCAO rats
Protocol: as §1
(§4) The tMCAO procedures were performed according to the method described R. Schmid-Elsaesser et al., A critical reevaluation of the intraluminal thread model of focal cerebral ischemia: evidence of inadvertent premature reperfusion and subarachnoid hemorrhage in rats by laser-doppler flowmetry, Stroke, 1998, 29(10): 2162-2170. Briefly, the right CCA (Common Carotid Artery) was exposed through a midline neck incision and carefully dissected free from surrounding nerves and fascia—from its bifurcation to the base of the skull. The occipital artery branches of the ECA (External Carotid Artery) were then isolated, and these branches were dissected and coagulated. […]
The rat was held approximately one inch from the base of its tail. […] A swing was recorded whenever the rat moved its head out of the vertical axis to either side. Before attempting another swing, the rat had to return to the vertical position for the next swing to be counted. Twenty (20) total swings were counted. […] Body swing scores are expressed as a percentage of […] over total swings.

[3] = test system: transient middle cerebral artery occlusion (tMCAO) rat model of stroke; assay: Stepping test, tMCAO rat model of stroke; type: in vivo; conditions: 50 μg/kg SC once per day, tMCAO rats
Protocol: as §1, §4
Animals were tested for forelimb akinesia in a stepping test. The animal was held with its hind limbs fixed with one hand and the forelimb not monitored with the other, while the unrestrained fore-paw touches a table. The number of adjusting steps were counted while the animal was moved sideways along the table surface (85 cm in approximately five seconds), in the forehand & backhand direction for both forelimbs.

[4] = test system: transient middle cerebral artery occlusion (tMCAO) rat model of stroke; assay: Forelimb placement test, tMCAO rat model of stroke; type: in vivo; conditions: 50 μg/kg SC once per day; for forelimb placement: first day of statistically significant improvement vs vehicle: tMCAO rats; for forelimb placement score improvement vs vehicle control / forelimb placement score improvement vs vehicle control, percent: by day 50
Protocol: as §1, §2, §3
The limb placing tests were divided into both forelimb and hindlimb tests. For the forelimb-placing test, the examiner held the rat close to a tabletop and scored the rat's ability to place the forelimb on the tabletop in response to whisker, visual, tactile, or proprioceptive stimulation. Similarly, for the hindlimb placing test, the examiner assessed the rat's ability to place the hindlimb on the tabletop in response to tactile and proprioceptive stimulation. Separate sub-scores were obtained for each mode of sensory input and added to give total scores (for the forelimb placing test: 0=normal, 12=maximally impaired; for the hindlimb placing test: 0=normal; 6=maximally impaired). Scores were given in half-point increments as follows: whisker placing (0-2), visual placing-forward (0-2), -sideways (0-2); tactile placing-dorsal (0-2), -lateral (0-2); proprioceptive placing (0-2); for a total of 0-12.

[5] = test system: transient middle cerebral artery occlusion (tMCAO) rat model of stroke; assay: Modified Neurological Rating Scale (mNRS), tMCAO rat model of stroke; type: in vivo; conditions: 50 μg/kg SC once per day, tMCAO rats
Protocol: as §1
as §4, with “coagulated. The ECA was dissected further distally and coagulated along with the terminal lingual and maxillary artery branches, which was then divided. The ICA (Internal Carotid Artery) was isolated and carefully separated from the adjacent vagus nerve, and the pterygopalatine artery was ligated close to its origin with a 5-0 nylon suture (SMI, Belgium).” for “coagulated.”

[6] = test system: human umbilical vein endothelial cells (HUVEC); assay: BDNF production in HUVEC (BDNF Emax immunoassay of cell medium); type: cell-based; conditions: for lowest dose stimulating significant BDNF expression: serum-free medium, 24 hours stimulation
Protocol: (§5) Prior to stimulation, cells were washed twice with sterile PBS and then provided with the respective serum free cell medium. Cells were incubated in the serum-free medium for one hour and afterwards stimulated for 24 hours. For the dose response measurement the peptides were used in a range from 10^−14M to 10^−6M. For all other experiments, a 10^−7M concentration of the peptides was used, whereas isoproterenol and forskolin were used in a 10^−6M concentration. To maintain the concentration of the substances over a period of 24 hours they were added again into the medium after 12 hours. After stimulation, the concentration of BDNF was determined in the cell medium. The samples were either used directly or stored at −80° C.
(§6) For the determination of the concentration of BDNF the BDNF Emax® immunoassay system from Promega was used. At first, 96-well plates were coated with anti-BDNF overnight at 4° C. The next day, the plates were washed with TBST and incubated with blocking buffer for one hour at room temperature. Afterwards, the plate was washed again with TBST, and 100 μl of sample were applied per well. The plate was incubated on a shaker (˜400 rpm) for two hours at room temperature and later on washed five times with TBST. To each well 100 μl pAb anti-human BDNF were added, and the plate again incubated under continuous shaking for two hours at room temperature. Thereafter, the plate was washed five times with TBST, each well applied with 100 μl anti-IgY-HRP conjugate, and incubated at room temperature with shaking for one hour. Then, the plate was washed five times with TBST and incubated for 10 min at room temperature on a shaker with TMB One Solution. The reaction was stopped with 1 M hydrochloric acid and the absorbance was measured immediately at 450 nm. The BDNF concentration was determined from a standard curve.

[7] = test system: human dermal microvascual endothelial cells (HDMEC); assay: BDNF production in HDMEC (BDNF Emax immunoassay of cell medium); type: cell-based; conditions: for lowest dose stimulating BDNF expression: serum-free medium, 24 hours stimulation
Protocol: as §5, §6

Ala^1-Arg^2-Val^3-Ser^4-Ile^5-His^6-Cys^7 (ARVSIHC) [TXA302]
dose of observed maximum cAMP (HUVEC cells): approximately 1×10^−9 M
lowest dose giving significant increase in cAMP (HUVEC cells): 10 pM
blood flow compared to vehicle controls and to rats receiving TXA301 [1]: markedly improved blood flow
blood flow ratio vs vehicle [1]: statistically significant improvement
vessel diameter compared to vehicle controls and to rats receiving TXA301 [1]: increased vessel diameter
vessel diameter vs vehicle [1]: statistically significant improvement
body swing test: first day of statistically significant improvement vs vehicle [2]: 15 days
stepping test: first day of statistically significant effect vs vehicle [3]: 15 days
forelimb placement: first day of statistically significant improvement vs vehicle [4]: 15 days
forelimb placement score improvement vs vehicle control [4]: more than 7 points
forelimb placement score improvement vs vehicle control, percent [4]: ~78%
mNRS: first day of significant increase in performance vs vehicle [5]: 15 days

Asp^1-Arg^2-Val^3-Tyr^4-Ile^5-His^6-Pro^7 (DRVYIHP) [Ang (1-7), naturally-occurring Ang-(1-7), reference compound]
lowest dose stimulating significant BDNF expression [6]: 10 nM
lowest dose stimulating BDNF expression [7]: 10 nM

TXA301: angiotensin (1-7) peptide coded TXA301 (SEQ ID NO: 20); sequence not printed in the text (DRVSIHC)
blood flow ratio vs vehicle [1]: statistically significant improvement
vessel diameter vs vehicle [1]: statistically significant improvement
body swing test: first day of statistically significant improvement vs vehicle [2]: 22 days
stepping test: first day of statistically significant effect vs vehicle [3]: 15 days
forelimb placement: first day of statistically significant improvement vs vehicle [4]: 22 days
forelimb placement score improvement vs vehicle control [4]: 4 points
forelimb placement score improvement vs vehicle control, percent [4]: ~44%
BDNF expression at doses 100,000 times higher than 1×10^−11 ([6]; compared with 1×10^−11 M): statistically similar levels of expression
lowest dose stimulating significant BDNF expression [6]: 0.01 nM
BDNF expression at doses 100,000 times higher than 1×10^−11 ([7]; compared with 1×10^−11 M): statistically similar levels of expression
lowest dose stimulating BDNF expression [7]: 0.01 nM
mNRS: first day of significant increase in performance vs vehicle [5]: 15 days
